In ChEMBL document CHEMBL4837189, “Opportunities and Limitations for Assigning Relative Configurations of Antibacterial Bislactones using GIAO NMR Shift Calculations” (J Nat Prod, 2021):
Values after ≈ are worked out from the molar mass of the structure shown.

Experiments:
Bacillus anthracis = experiment: Antimicrobial activity against Bacillus anthracis assessed as microbial growth inhibition by CLSI-protocol based broth microdilution assay; type: functional
Staphylococcus aureus [1] = experiment: Antimicrobial activity against methicillin-resistant Staphylococcus aureus assessed as microbial growth inhibition by CLSI-protocol based broth microdilution assay; type: functional
Staphylococcus aureus [2] = experiment: Antimicrobial activity against Staphylococcus aureus assessed as microbial growth inhibition by CLSI-protocol based broth microdilution assay; type: functional
Escherichia coli = experiment: Antimicrobial activity against Escherichia coli assessed as microbial growth inhibition by CLSI-protocol based broth microdilution assay; type: functional
Pseudomonas aeruginosa = experiment: Antimicrobial activity against Pseudomonas aeruginosa assessed as microbial growth inhibition by CLSI-protocol based broth microdilution assay; type: functional
MDA-MB-231 = experiment: Cytotoxicty against human MDA-MB-231 cells assessed as reduction in cell viability at > 25 uM measured after 72 hrs by CellTiter-Blue cell viability assay; type: cell-based; conditions: mda-mb-231, 72 h
OVCAR-3 = experiment: Cytotoxicty against human OVCAR-3 cells assessed as reduction in cell viability at > 25 uM measured after 72 hrs by CellTiter-Blue cell viability assay; type: cell-based; conditions: ovcar-3, 72 h
MDA-MB-435 = experiment: Cytotoxicty against human MDA-MB-435 cells assessed as reduction in cell viability at > 25 uM measured after 72 hrs by CellTiter-Blue cell viability assay; type: cell-based; conditions: mda-mb-435, 72 h

| Structure (SMILES) | MIC (Bacillus anthracis) [µg/mL] | MIC (Staphylococcus aureus [1]) [µg/mL] | MIC (Staphylococcus aureus [2]) [µg/mL] | MIC (Escherichia coli) [µg/mL] | MIC (Pseudomonas aeruginosa) [µg/mL] | Activity (MDA-MB-231) | Activity (OVCAR-3) | Activity (MDA-MB-435) |
| --- | --- | --- | --- | --- | --- | --- | --- | --- |
| CC1OC(=O)/C=C/[C@@H](O)CC[C@H](C)OC(=O)CCC1=O (stereo partly drawn) | 62.5 (≈ 220 µM) | 125 (≈ 440 µM) | 1 (≈ 3.52 µM) | 125 (≈ 440 µM) | 125 (≈ 440 µM) | Non-Toxic | Non-Toxic | Non-Toxic |
| C[C@@H]1OC(=O)/C=C/[C@@H](O)CC[C@H](C)OC(=O)CC[C@@H]1O | 125 (≈ 437 µM) | 125 (≈ 437 µM) | 4 (≈ 14 µM) | 125 (≈ 437 µM) | 125 (≈ 437 µM) | – | – | – |
| CC(=C\C(=O)O)/C=C(\C)C[C@H](C)CCCC[C@H]1OC(=O)[C@@H]1CO [ANTIBIOTIC 1233A] | > 250 | 125 (≈ 385 µM) | 125 (≈ 385 µM) | > 250 | 125 (≈ 385 µM) | – | – | – |
| CC[C@H]1OC(=O)[C@H](C)[C@@H](O[C@H]2C[C@@](C)(OC)[C@@H](O)[C@H](C)O2)[C@H](C)[C@@H](O[C@@H]2O[C@H](C)C[C@H](N(C)C)[C@H]2O)[C@](C)(OC)C[C@@H](C)C(=O)[C@H](C)[C@@H](O)[C@]1(C)O [CLARITHROMYCIN] | 0.25 (≈ 0.334 µM) | > 250 | 0.25 (≈ 0.334 µM) | 16 (≈ 21.4 µM) | 125 (≈ 167 µM) | – | – | – |
| CC[C@H]1OC(=O)[C@H](C)[C@@H](O[C@H]2C[C@@](C)(OC)[C@@H](O)[C@H](C)O2)[C@H](C)[C@@H](O[C@@H]2O[C@H](C)C[C@H](N(C)C)[C@H]2O)[C@](C)(O)C[C@@H](C)C(=O)[C@H](C)[C@@H](O)[C@]1(C)O [ERYTHROMYCIN] | 0.25 (≈ 0.341 µM) | 0.25 (≈ 0.341 µM) | 0.5 (≈ 0.681 µM) | 16 (≈ 21.8 µM) | 62.5 (≈ 85.2 µM) | – | – | – |
| CC1(C)S[C@@H]2[C@H](NC(=O)Cc3ccccc3)C(=O)N2[C@H]1C(=O)O [PENICILLIN G] | 0.25 (≈ 0.748 µM) | 0.5 (≈ 1.5 µM) | 0.25 (≈ 0.748 µM) | 16 (≈ 47.8 µM) | > 250 | – | – | – |
| CO[C@H]1/C=C/O[C@@]2(C)Oc3c(C)c(O)c4c(O)c(c(/C=N/N5CCN(C)CC5)c(O)c4c3C2=O)NC(=O)/C(C)=C\C=C\[C@H](C)[C@H](O)[C@@H](C)[C@@H](O)[C@@H](C)[C@H](OC(C)=O)[C@@H]1C [RIFAMPIN] | 0.25 (≈ 0.304 µM) | 0.25 (≈ 0.304 µM) | 0.25 (≈ 0.304 µM) | 4 (≈ 4.86 µM) | 62.5 (≈ 75.9 µM) | – | – | – |
| CN[C@@H]1[C@H](O[C@H]2[C@H](O[C@H]3[C@H](O)[C@@H](O)[C@H](N=C(N)N)[C@@H](O)[C@@H]3N=C(N)N)O[C@@H](C)[C@]2(O)C=O)O[C@@H](CO)[C@H](O)[C@H]1O [STREPTOMYCIN] | 0.25 (≈ 0.43 µM) | 0.25 (≈ 0.43 µM) | 0.25 (≈ 0.43 µM) | 0.25 (≈ 0.43 µM) | 1 (≈ 1.72 µM) | – | – | – |
